From publication PMC3834215, “RedOx Status, Proteasome and APEH: Insights into Anticancer Mechanisms of t10,c12-Conjugated Linoleic Acid Isomer on A375 Melanoma Cells” (PLoS ONE, 2013)
Each block holds one compound with its values, some of them ahead of it.

How the values were obtained:
[1] = biological target: T1, 20S human proteasome (Homo sapiens, UniProt P28074); assay: Cell-free inhibition of chymotrypsin-like (CT-like) activity of 20S proteasome; format: biochemical; settings: for IC50: 30 min pre-incubation, 37 °C, pH 7.5, N-Suc-LLVT-AMC 0.080 mM, read-out: IC50 on 20S isoform (CT-like activity)
T1 construct: purchased Boston Biochem
Description: (§1) The fluorescent substrate N-succinyl-Leu-Leu-Val-Tyr-7-amido-4-methylcoumarin (N-Suc-LLVT-AMC) was used for measurement of the CT-like activity of the proteasome, both in cell free assays and in cancer cell extracts, at a final concentration of 0.080 mM at 37 °C in Tris buffer pH 7.5, following the procedure described in Palmieri et al..
(§2) Protease inhibition activities of CLA isomers and fatty acids were carried out using a fixed amount of commercially available APEH or 20S, 20Si, 26S proteasomes (3-5 nM or 0.12 mg/mL, respectively), and increasing concentrations of fatty acid. Mixtures were pre-incubated for 30min at 37 °C in 50 mM Tris-HCl buffer pH 7.5, before addition of the specific substrate, and the enzymatic activities were followed as described above.

[2] = test system: A375 melanoma cells; assay: MTT cell viability, A375; format: cell-based, human; settings: for reduction of cell viability: A375, 24h exposure, 50 to 200 μM
Description: (§3) The colorimetric 3-(4,5-dimethylthiazol-2)-2,5-diphenyltetrazolium bromide (MTT) (Sigma Aldrich, Milan) assay was used to quantify cell viability. Briefly, cells were incubated in 96 well microplates in the appropriate complete medium with standardized densities for 24h as pre-incubation process. The medium was removed and replaced by medium containing different doses of the different CLA-isomers for 24h. Following treatment, the medium was removed and the cells were incubated with DMEM w/o red phenol with 0.5 mg/ml MTT for additional 2 to 4h at 37 °C. After removal of the medium and MTT, cells in each plate were incubated with 0.1 M HCl/isopropanol to dissolve the MTT-formazan crystals. Absorbance at 590 nm was recorded with a plate reader (Bio Rad mod 680). The relative number of viable cells was expressed as a percentage of the control.

[3] = biological target: T2, 20Si human proteasome (Homo sapiens, UniProt P28062); assay: Cell-free inhibition of CT-like activity of 20Si proteasome; format: biochemical; settings: for IC50: 30 min pre-incubation, 37 °C, pH 7.5, N-Suc-LLVT-AMC 0.080 mM, read-out: IC50 on 20Si isoform (CT-like activity)
T2 construct: purchased Boston Biochem
Description: The fluorescent substrate N-succinyl-Leu-Leu-Val-Tyr-7-amido-4-methylcoumarin (N-Suc-LLVT-AMC) was used for measurement of the CT-like activity of the proteasome, both in cell free assays and in cancer cell extracts, at a final concentration of 0.080 mM at 37 °C in Tris buffer pH 7.5, following the procedure described in Palmieri et al. [25].

[4] = test system: A375M metastatic melanoma cells; assay: MTT cell viability, A375M; format: cell-based, human; settings: 24h exposure, 50 to 200 μM
Description: as §3

[5] = test system: MDA-MB mammary adenocarcinoma cells; assay: MTT cell viability, MDA-MB; format: cell-based, human; settings: 24h exposure, 50 to 200 μM
Description: as §3

[6] = test system: β-5 proteasome subunit mRNA in A375 cells; assay: β-5 proteasome subunit mRNA by qRT-PCR in A375; format: cell-based, human
Description: (§4) mRNA expression levels of APEH and β-5 proteasome subunit were determined in treated or untreated cells to investigate on the functional relationship existing between APEH and proteasome activities and on their involvement in the anticancer activity of CLA.
(§5) Total RNA was isolated from the human cell lines (~10^6 cells aliquots) according to the SV Total RNA Isolation System (Promega) protocol, with an on column DNase I step. Total RNA concentrations were determined using a Qubit® Fluorometer (Invitrogen). RNAs were then reverse transcribed using the Transcriptor First Strand cDNA Synthesis Kit (Roche). 100 ng of reverse transcribed complementary DNA, and its dilution series to calculate the efficacy of primers, were amplified by quantitative real-time PCR (qRT-PCR) on an iCycleriQ™ (Bio-Rad) using 300 nM gene-specific primers, Maxima® SYBR Green/Fluorescein qPCR Master Mix (2X) (Fermentas) and the following PCR conditions: 1 cycle at 95 °C for 10min, and 40 cycles of 95 °C for 15s , 60 °C for 30s, and 72 °C for 30s.
(§6) The expression level of β-actin gene was used as an internal control for normalization (ref gene). Raw cycle threshold values (Ct values) obtained for the target genes were compared to the Ct value obtained for the ref gene. […]

[7] = test system: human fibroblasts; format: cell-based
Description: Human hepatoma cells (HepG2) were seeded (2x10^4cells/cm^2) and maintained for 24h in MEM (Gibco Invitrogen; Milano) medium supplemented with 2 mM L-glutamine, 1% nonessential amino acids and 10% FBS. Colon carcinoma (Caco-2), cervical carcinoma (Hela), glioblastoma (U87), melanoma (A375, A375M) and mammary adenocarcinoma (MCF7, MDA-MB) were seeded (1x10^4cells/cm^2) and grown in DMEM supplemented with 10% FBS, 2 mM L-glutamine. HepG2, Hela, U87, Caco-2, MCF7, MDA-MB, A375 and A375 metastatic melanoma (A375M) cell lines were obtained by ATCC (LCG standards, Milano, Italy). Normal human dermal fibroblast (NDHF) within 8th passage were seeded at a density of 2x10^4 cells/cm^2 and cultured in fibroblast growth medium (FGM-2; Lonza, Milan, Italy) containing 2% FBS, 50 μg/mL gentamycin and amphotericin B, 10μg/mL fibroblast growth factor and insulin. BHK21 cells (kindly donated by Dr. David Y Thomas, McGill University Montreal Canada) were cultured in DMEM/F12, 5% FBS, 1 mM L-glutamine, 200 µg/mL methotrexate, and 100units/mL penicillin-streptomycin. […]
The colorimetric 3-(4,5-dimethylthiazol-2)-2,5-diphenyltetrazolium bromide (MTT) (Sigma Aldrich, Milan) assay was used to quantify cell viability. […] Absorbance at 590 nm was recorded with a plate reader (Bio Rad mod 680). The relative number of viable cells was expressed as a percentage of the control.

[8] = biological target: T3, Porcine liver APEH (Sus scrofa, UniProt P19205); assay: Cell-free APEH inhibition assay (acetyl-Ala-pNA); format: biochemical
T3 construct: purchased Takara; host or cells: porcine liver
T3 sequence (P19205 1-732): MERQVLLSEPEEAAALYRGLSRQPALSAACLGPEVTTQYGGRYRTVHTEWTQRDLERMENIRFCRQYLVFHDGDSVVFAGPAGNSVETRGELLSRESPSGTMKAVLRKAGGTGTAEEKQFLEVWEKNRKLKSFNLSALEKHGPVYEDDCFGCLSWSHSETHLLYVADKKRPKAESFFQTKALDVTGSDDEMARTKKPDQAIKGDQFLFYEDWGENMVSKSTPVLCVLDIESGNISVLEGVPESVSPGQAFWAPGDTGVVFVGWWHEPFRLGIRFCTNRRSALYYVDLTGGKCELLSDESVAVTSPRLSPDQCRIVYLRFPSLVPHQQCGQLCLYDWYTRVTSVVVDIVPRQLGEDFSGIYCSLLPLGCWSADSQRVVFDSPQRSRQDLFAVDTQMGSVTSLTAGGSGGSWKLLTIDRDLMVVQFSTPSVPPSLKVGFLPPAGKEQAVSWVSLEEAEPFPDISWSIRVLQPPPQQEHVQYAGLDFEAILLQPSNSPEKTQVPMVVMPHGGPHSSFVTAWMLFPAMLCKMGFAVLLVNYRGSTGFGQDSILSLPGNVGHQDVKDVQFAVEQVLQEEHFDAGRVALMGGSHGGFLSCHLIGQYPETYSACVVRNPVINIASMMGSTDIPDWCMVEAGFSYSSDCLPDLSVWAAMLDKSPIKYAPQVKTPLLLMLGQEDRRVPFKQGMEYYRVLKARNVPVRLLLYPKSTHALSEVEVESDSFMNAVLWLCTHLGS
Description: (§7) APEH activity was measured spectrophotometrically using the chromogenic substrate acetyl-Ala-pNA (Bachem) as described before. The reaction mixture containing pure APEH or an appropriate amount of cell extract was incubated at 37 °C in 50 mM Tris-HCl, pH 7.5 (Tris Buffer).
as §2

[9] = test system: caspase 3 in A375 cells; assay: Caspase 3 activity in A375 cells; format: cell-based, human; settings: A375, 24h, doses 50, 100 or 200 μM, dose-dependent, maximum
Description: Pro-apoptotic and cytotoxic ability of CLA isomers were assayed by measuring caspase 3 and the activity of lactate dehydrogenase (LDH) in the spent media, respectively [25]. The caspase 3 activity, measured at 37 °C and pH 7.5, was expressed as fold increase compared to the control culture.

[10] = test system: Bcl-2 in A375 cells; assay: Bcl-2 protein expression by immunoblotting in A375; format: cell-based, human; settings: A375, 24h, 50-200 μM
Description: (§8) Following the treatments, cells were washed three times with ice cold phosphate-buffer saline (PBS) and cytosolic extracts were prepared accordingly to a published procedure. Protein concentrations were determined in supernatants by BCA protein assay reagent kit (Pierce). Western blotting analyses were performed as previously described.

[11] = test system: intracellular GSH in A375 cells; assay: Intracellular GSH in A375; format: cell-based, human; settings: A375, 24h, 50, 100 or 200 μM
Description: Intracellular concentration of reduced and oxidized glutathione (GSH and GSSG, respectively) were quantified using the 5,5'-dithiobis(2-nitrobenzoic acid)-GSSG reductase recycling assay. GSSG content was preliminarily evaluated in cytosolic extracts of treated or untreated cells upon the addition of 10 mM 1-methyl-2-vinylpyridinium trifluoromethanesulfonate (a specific GSH scavenger).

[12] = test system: γGCL mRNA in A375 cells; assay: γGCL mRNA by qRT-PCR in A375; format: cell-based, human; settings: A375, 200 μM, end of time course
[13] = test system: APEH activity in A375 cells; assay: APEH activity in A375 cytoplasmic extracts after treatment; format: cell-based, human
Description: as §7, §8

[14] = test system: HeLa cervical carcinoma cells; assay: MTT cell viability, HeLa; format: cell-based, human; settings: 24h exposure, 50 to 200 μM
Description: as §3

[15] = test system: APEH mRNA in A375 cells; assay: APEH mRNA by qRT-PCR in A375; format: cell-based, human
Description: as §4, §5, §6

[16] = test system: proteasomal CT-like activity in A375 cells; assay: Proteasomal CT-like activity in A375 cytoplasmic extracts after treatment; format: cell-based, human; settings: for proteasomal CT-like activity inhibited to: 24h
Description: as §1, §8

[17] = test system: all cancer cells (U87, MCF7, MDA-MB, HeLa, Caco2, HepG2, A375M, A375); assay: MTT cell viability, eight cancer cell lines; format: cell-based, human; settings: up to 200 μM, 24h, data not shown
Description: as §3

[18] = negative control, data not shown

Compound: CC(C)C[C@H](NC(=O)[C@H](Cc1ccccc1)NC(=O)c1cnccn1)B(O)O [BTZ, bortezomib, reference compound]
- inhibition reached, 20S ([1]; plateau of dose-response curve): about 60%
- IC50 ([2]; Homo sapiens, A-375, read-out: IC50 (dose accountable for 50% decrease of cell viability), A375, 24h): 0.01 ± 2e-05 µM

Compound: CCCCCC/C=C/C=C\CCCCCCCC(=O)O [c9,t11-CLA, cis9,trans11 (c9,t11-CLA)]
- IC50 [3]: 6.4 ± 1 µM
- IC50 [1]: 31.2 ± 8.8 µM
- reduction of cell viability [4]: < 40%
- reduction of cell viability [5]: < 40%
- reduction of cell viability [2]: < 40%

Compound: CCCCCC/C=C/C=C/CCCCCCCC(=O)O [t9,t11-CLA]
- reduction of cell viability [2]: about 50%

Now from value to compound, other results behind:

- IC50 [3]: 1.1 ± 0.2 µM
- IC50 [1]: 14.8 ± 2 µM
- IC50 ([8]; 37 °C, pH 7.5): 110 ± 11.7 µM
- maximum inhibition of APEH ([8]; dose-dependent): about 41%
Compound: CCCCC/C=C\C=C\CCCCCCCCC(=O)O [t10,c12-CLA, trans10,cis12 (t10,c12-CLA)]
- β-5 mRNA stable final value vs initial expression level ([6]; A375, 50 μM, time course): approximately one-fold lower
- proteasome (β-5) mRNA level ([6]; A375, 200 μM, 24h): strongly down-regulated
- toxic effects on fibroblast proliferation [7]: lack of toxic effects
- caspase 3 activation compared to the control culture [9]: eightfold increase
- maximum reduction of Bcl-2 expression [10]: 80%
- reduction of cell viability [4]: 51%
- intracellular GSH [11]: significant decline
- reduction of cell viability [2]: 63%
- down-regulation of γGCL mRNA levels [12]: 1.5 fold
- APEH activity plateau, % of starting value ([13]; A375, 50 μM, plateau after 8h): 80%
- APEH activity plateau, % of starting level ([13]; A375, 200 μM, time course): 70%
- reduction of cell viability [14]: 40%
- APEH mRNA stable final value vs initial expression level ([15]; A375, 50 μM, time course): approximately one-fold lower
- APEH mRNA level ([15]; A375, 200 μM, 24h): strongly down-regulated
- proteasomal CT-like activity plateau, % of starting value ([16]; A375, 50 μM, plateau after 8h): 70%
- proteasomal CT-like activity inhibited to ([16]; A375, 100 μM): 50%
- proteasomal CT-like activity inhibited to ([16]; A375, 200 μM): 25%

- inhibitory effect on 20Si CT-like activity [3, 18]: only negligible effects
- inhibitory effect on 20S CT-like activity [1, 18]: only negligible effects
Compound: CCCCCCCC(=O)O [octanoic acid, reference compound]
- effect on cell viability [17]: no significant results
